The text below walks through data of ChEMBL document CHEMBL4402546, “Urea Derivatives in Modern Drug Discovery and Medicinal Chemistry” (J Med Chem, 2020).

Data set [1] addresses Metabotropic glutamate receptor 4 (Homo sapiens, UniProt Q14833). The experiment in a line: Inhibition of mGluR4 (unknown origin).
The target in data set [2] is Metabotropic glutamate receptor 7 (Homo sapiens, UniProt Q14831). The experiment in a line: Inhibition of mGluR7 (unknown origin).
Data set [3] deals with Metabotropic glutamate receptor 3 (Homo sapiens, UniProt Q14832). The experiment in a line: Inhibition of mGluR3 (unknown origin).
Data set [4] has as its target Metabotropic glutamate receptor 2 (Homo sapiens, UniProt Q14416). The experiment in a line: Inhibition of mGluR2 (unknown origin).
The target of data set [5] is Metabotropic glutamate receptor 1 (Homo sapiens, UniProt Q13255). The experiment in a line: Inhibition of mGluR1 (unknown origin).
The target in data set [6] is Metabotropic glutamate receptor 5 (Rattus norvegicus, UniProt P31424). The experiment in a line: Inhibition of rat mGluR5 expressed in HEK293A cells preincubated for 140 secs followed by EC20 glutamate stimulation for 74 secs and subsequent EC80 glutamate addition and measured up to 40 secs by Fluo-4-AM dye based fluorescence assay. It is filed as cell-based.
Data set [7] addresses Metabotropic glutamate receptor 8 (Homo sapiens, UniProt O00222). The experiment in a line: Inhibition of mGluR8 (unknown origin).
Data set [8] concerns the target RAF proto-oncogene serine/threonine-protein kinase (Homo sapiens, UniProt P04049). The experiment in a line: Inhibition of c-RAF (unknown origin).
Data set [9] addresses Serine/threonine-protein kinase B-raf (Homo sapiens, UniProt P15056, V600E). The experiment in a line: Inhibition of BRAF V600E mutant (unknown origin).
Another data set deals with DNA gyrase subunit B (Escherichia coli, UniProt P0AES6). The experiment in a line: Inhibition of Escherichia coli DNA gyrase B incubated for 60 mins by malachite green dye based spectrometric analysis.
Data set [10] in a line: Inhibition of Escherichia coli DNA topoisomerase 4 incubated for 60 mins by malachite green dye based spectrometric analysis.
Data set [11] concerns Plasmodium falciparum. The experiment in a line: Antimalarial activity against Plasmodium falciparum 3D7 incubated for 48 hrs by [3H]-hypoxanthine incorporation assay. The data set is classed as functional, organism-based.
Data set [12] has as its system Plasmodium falciparum. The experiment in a line: Antimalarial activity against Plasmodium falciparum Dd2 incubated for 48 hrs by [3H]-hypoxanthine incorporation assay. It is filed as functional, organism-based.
The next data set concerns Plasmodium berghei. The experiment in a line: Antiparasitic activity against blood stage Plasmodium berghei ANKA infected in ARC mouse assessed as suppression of parasitemia at 32 mg/kg, sc administered twice daily with 6 hrs apart for 4 consecutive days by Giemsa staining based microscopic analysis relative to control.
A short description of data set [13]: Half life in schizophrenic patient at 1.5 to 12.5 mg/day. It is filed as ADME. To be noted: human, in vivo.
The test system of another data set is HT-29. The experiment in a line: Antiproliferative activity against human HT-29 cells after 72 hrs by CCK8 assay. It is filed as functional, cell-based. As to conditions: HT-29, 72 h. A general note: Tetrazolium dyes change colour on reduction, which living cells bring about.
The test system of the next data set is LoVo. The experiment in a line: Antiproliferative activity against human LoVo cells after 72 hrs by CCK8 assay. The data set is classed as functional, cell-based.
Data set [14] is described as follows: Half life in plasma (unknown origin). The data set is classed as ADME, cell-free.
In another data set the target is Protease (Human immunodeficiency virus 1, UniProt Q9YQ12). The experiment in a line: Inhibition of HIV-1 protease by spectrofluorometric assay.

pIC50: −log10 of the molar value.

Sequence of Metabotropic glutamate receptor 4 (Q14833 whole entry): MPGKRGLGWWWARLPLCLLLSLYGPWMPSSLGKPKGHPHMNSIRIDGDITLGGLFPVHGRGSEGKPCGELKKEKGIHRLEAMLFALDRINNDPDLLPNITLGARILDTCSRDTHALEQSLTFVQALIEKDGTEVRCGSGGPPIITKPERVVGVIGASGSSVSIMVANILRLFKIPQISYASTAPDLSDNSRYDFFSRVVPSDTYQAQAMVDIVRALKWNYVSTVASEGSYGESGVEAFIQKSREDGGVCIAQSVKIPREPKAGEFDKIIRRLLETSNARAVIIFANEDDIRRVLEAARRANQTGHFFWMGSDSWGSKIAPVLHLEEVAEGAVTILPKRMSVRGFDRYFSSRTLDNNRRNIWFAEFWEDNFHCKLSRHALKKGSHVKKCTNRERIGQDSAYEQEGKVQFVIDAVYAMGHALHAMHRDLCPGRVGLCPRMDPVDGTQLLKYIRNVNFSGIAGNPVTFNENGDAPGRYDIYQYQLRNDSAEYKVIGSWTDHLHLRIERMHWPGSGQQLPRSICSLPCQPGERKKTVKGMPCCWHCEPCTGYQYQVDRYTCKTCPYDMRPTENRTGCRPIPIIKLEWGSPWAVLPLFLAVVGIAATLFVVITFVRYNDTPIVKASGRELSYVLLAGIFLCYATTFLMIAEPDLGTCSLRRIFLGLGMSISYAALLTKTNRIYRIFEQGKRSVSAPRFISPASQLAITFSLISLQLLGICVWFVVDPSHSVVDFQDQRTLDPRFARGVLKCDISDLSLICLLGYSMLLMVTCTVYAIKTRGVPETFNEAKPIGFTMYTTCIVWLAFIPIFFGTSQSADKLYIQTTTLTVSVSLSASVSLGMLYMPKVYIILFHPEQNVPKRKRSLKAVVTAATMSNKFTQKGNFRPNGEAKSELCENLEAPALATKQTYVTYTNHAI
Sequence of Metabotropic glutamate receptor 3 (Q14832 whole entry): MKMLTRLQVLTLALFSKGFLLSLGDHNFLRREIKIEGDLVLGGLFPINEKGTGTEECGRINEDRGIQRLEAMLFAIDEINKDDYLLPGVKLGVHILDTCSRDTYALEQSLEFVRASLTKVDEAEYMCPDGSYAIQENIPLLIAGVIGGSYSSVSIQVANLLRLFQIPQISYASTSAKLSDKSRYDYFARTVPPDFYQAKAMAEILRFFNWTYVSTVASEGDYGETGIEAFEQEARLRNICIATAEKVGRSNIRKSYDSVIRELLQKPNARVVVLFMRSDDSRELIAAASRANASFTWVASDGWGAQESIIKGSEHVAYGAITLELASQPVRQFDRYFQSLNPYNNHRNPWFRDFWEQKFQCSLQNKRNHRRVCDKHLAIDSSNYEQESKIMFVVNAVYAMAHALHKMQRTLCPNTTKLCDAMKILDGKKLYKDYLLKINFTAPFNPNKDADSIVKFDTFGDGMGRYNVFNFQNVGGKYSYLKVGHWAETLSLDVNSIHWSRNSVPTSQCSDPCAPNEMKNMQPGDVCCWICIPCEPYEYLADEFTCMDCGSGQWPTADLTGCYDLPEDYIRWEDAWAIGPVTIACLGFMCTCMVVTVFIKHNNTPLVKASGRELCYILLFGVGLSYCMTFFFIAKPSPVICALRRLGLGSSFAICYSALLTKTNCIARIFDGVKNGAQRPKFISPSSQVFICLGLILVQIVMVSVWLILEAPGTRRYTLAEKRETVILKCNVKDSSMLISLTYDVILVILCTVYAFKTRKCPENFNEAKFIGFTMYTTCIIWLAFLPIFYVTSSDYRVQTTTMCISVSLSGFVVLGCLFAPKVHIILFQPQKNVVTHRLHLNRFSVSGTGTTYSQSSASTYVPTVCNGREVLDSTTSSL
Sequence of Metabotropic glutamate receptor 8 (O00222 whole entry): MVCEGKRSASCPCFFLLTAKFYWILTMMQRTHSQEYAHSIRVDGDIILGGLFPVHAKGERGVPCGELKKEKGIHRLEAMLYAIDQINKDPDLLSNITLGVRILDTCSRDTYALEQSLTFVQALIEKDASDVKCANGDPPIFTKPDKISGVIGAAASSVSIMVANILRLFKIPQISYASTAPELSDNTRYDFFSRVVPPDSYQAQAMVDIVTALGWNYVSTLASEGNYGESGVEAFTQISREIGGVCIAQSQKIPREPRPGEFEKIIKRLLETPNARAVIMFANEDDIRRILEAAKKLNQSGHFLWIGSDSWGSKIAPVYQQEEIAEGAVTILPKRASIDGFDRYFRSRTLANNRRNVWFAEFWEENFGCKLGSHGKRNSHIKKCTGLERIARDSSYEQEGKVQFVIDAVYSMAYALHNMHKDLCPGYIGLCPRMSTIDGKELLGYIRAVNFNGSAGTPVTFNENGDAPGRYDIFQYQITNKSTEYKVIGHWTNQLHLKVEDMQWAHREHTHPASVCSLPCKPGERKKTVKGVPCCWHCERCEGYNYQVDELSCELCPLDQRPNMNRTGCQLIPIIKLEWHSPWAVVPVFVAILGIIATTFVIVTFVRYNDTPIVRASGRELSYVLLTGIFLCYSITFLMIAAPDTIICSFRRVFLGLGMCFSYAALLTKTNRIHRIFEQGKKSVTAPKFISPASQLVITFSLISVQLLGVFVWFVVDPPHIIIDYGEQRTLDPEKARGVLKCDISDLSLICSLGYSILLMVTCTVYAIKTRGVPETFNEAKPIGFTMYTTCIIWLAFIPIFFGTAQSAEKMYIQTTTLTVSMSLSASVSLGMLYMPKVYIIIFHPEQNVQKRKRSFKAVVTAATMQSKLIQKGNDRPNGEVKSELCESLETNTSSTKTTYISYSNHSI
Sequence of RAF proto-oncogene serine/threonine-protein kinase (P04049 whole entry): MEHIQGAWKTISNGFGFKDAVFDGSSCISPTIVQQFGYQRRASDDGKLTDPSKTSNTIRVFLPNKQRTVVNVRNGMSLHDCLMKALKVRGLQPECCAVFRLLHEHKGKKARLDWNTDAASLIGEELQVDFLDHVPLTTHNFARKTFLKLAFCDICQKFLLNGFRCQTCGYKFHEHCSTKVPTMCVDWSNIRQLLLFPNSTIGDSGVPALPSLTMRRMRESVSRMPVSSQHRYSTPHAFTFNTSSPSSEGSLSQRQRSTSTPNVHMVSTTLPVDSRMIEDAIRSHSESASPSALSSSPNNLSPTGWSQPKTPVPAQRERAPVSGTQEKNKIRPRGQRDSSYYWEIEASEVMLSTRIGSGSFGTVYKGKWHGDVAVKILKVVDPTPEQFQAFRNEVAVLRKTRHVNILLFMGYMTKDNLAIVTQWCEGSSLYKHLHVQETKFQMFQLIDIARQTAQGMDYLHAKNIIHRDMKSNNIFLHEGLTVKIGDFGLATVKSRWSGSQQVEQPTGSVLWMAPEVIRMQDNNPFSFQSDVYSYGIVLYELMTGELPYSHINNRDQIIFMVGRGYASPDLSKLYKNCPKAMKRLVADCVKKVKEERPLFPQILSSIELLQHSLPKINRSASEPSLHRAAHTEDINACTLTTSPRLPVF
Sequence of Serine/threonine-protein kinase B-raf (P15056 2-766 V600E limits assumed): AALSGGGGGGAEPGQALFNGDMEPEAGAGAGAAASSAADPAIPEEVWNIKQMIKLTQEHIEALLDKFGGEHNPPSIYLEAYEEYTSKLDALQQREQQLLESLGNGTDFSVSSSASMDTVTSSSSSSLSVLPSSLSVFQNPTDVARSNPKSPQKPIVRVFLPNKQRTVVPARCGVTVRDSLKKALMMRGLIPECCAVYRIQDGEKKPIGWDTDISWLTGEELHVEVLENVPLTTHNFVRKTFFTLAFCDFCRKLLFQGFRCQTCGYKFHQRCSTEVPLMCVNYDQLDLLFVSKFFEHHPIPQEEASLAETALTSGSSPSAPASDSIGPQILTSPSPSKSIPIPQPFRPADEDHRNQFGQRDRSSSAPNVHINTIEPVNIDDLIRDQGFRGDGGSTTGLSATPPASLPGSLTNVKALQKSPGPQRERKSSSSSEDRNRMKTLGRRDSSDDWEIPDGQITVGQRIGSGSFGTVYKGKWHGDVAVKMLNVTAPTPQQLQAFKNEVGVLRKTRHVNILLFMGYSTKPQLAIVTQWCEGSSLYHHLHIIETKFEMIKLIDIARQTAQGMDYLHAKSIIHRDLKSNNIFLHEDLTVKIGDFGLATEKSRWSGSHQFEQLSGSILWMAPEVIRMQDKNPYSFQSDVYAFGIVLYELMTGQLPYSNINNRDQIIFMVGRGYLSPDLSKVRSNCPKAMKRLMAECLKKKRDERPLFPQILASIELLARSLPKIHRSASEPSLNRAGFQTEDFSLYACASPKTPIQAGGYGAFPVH
Sequence of Protease (Q9YQ12 whole entry): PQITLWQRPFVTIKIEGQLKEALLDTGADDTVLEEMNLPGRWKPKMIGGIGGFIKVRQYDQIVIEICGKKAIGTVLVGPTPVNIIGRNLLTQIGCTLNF

As to `N#Cc1cc(F)cc(NC(=O)Nc2ccc(Cl)cn2)c1`, the pIC50 (commonly the negative decadic logarithm of the IC50, by convention in mol/L) is less than 4.52 in data set [1]; less than 4.52 in data set [2]; less than 4.52 in [3]; less than 4.52 in data set [4]; less than 4.52 in data set [5]; 7.89 in [6]. Besides, in data set [7], the pIC50 is less than 4.52.

As to `CNC(=O)c1cc(Oc2cccc3nc(NC(=O)Nc4ccc(Cl)c(C(F)(F)F)c4)ccc23)ccn1`, the pIC50 in data set [8] was 7.21; in data set [9] it was 6.50.

At DNA gyrase subunit B, `CCNC(=O)Nc1nc2cc(-c3cnc(N4CCC(C(=O)O)CC4)nc3)cc(-c3ccccn3)c2s1` gave a pIC50 greater than 6.70. For the same compound, the IC50 (in general, the concentration that inhibits the measured activity by half) in data set [10] is less than 0.1 µg/mL.

As for `CCCCNC(=O)NCCc1c[nH]c2c1C(=O)C1=C(NC=CS1(=O)=O)C2=O`, the pIC50 in the data set with Plasmodium falciparum [11] was 6.19; in the data set on Plasmodium falciparum [12] it was 6.28. Moreover, in the data set on Plasmodium berghei, the Activity was found to be 26%.

In the case of `CN(C)C(=O)N[C@H]1CC[C@H](CCN2CCN(c3cccc(Cl)c3Cl)CC2)CC1` [CARIPRAZINE], the half-life (usually the time in which the quantity being followed falls by half) in data set [13] fell in the range of 2 to 5 days.

As to `N#Cc1cc(O)ccc1-c1ccc(NC(=O)Nc2ccc(Cl)c(C(F)(F)F)c2)cc1`, the pIC50 in the data set on HT-29 was 5.72; with LoVo, 5.82.

Turning to `CC(C)c1nc(CN(C)C(=O)N[C@H](C(=O)N[C@@H](Cc2ccccc2)C[C@H](O)[C@H](Cc2ccccc2)NC(=O)OCc2cncs2)C(C)C)cs1` [RITONAVIR], the half-life in data set [14] is 72 min.

Consider `CC(C)CN(C[C@@H](O)[C@H](Cc1ccccc1)NC(=O)[C@H](CC(N)=O)NC(=O)c1ccc2ccccc2n1)C(=O)NC(C)(C)C`, for which the negative logarithm of the IC50 (pIC50) on Protease is 8.20.
